{"source": "PubChem BioAssay AID212", "about": "(DTP/NCI, 2004)", "test_system": "BDF1 mice, colon carcinoma 38 sc, T/C %", "assay": "NCI In Vivo Anticancer Drug Screen. Data for tumor model Colon Carcinoma 38 (subcutaneous) in B6D2F1 (BDF1) mice", "conditions": "endpoint: median tumor weight (est.), higher = larger tumour", "outline": "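Mice with transplanted tumors are treated with compound or vehicle. Survival or tumor size is then measured in both groups. The ratio of treated to control gives the reported figure.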", "note": "Where “and” joins values, the source holds several entries; their conditions need not be identical. Identical values can stand only once. Records with an inconclusive call do not appear."}
{"smiles": "CCS/C(SC)=C(/c1ccccc1)[P+](c1ccccc1)(c1ccccc1)c1ccccc1", "values": [{"measurement": "T/C", "setting": "dose: 1.5 mg/kg/injection, schedule: Q07DX002 (ip), vehicle: Klucel (hydroxypropylcellulose) (HPC)", "result": "87 % of control"}, {"measurement": "T/C", "setting": "dose: 3.0 mg/kg/injection, schedule: Q07DX002 (ip), vehicle: Klucel (hydroxypropylcellulose) (HPC)", "result": "116 % of control"}]}
{"smiles": "Nc1ccc(S(=O)(=O)c2ccc(N)cc2)cc1", "values": [{"measurement": "T/C", "setting": "dose: 6.25 mg/kg/injection, schedule: Q07DX002 (ip), vehicle: saline with Tween-80", "result": "154 % of control"}, {"measurement": "T/C", "setting": "dose: 12.5 mg/kg/injection, schedule: Q07DX002 (ip), vehicle: saline with Tween-80", "result": "111 % of control"}, {"measurement": "T/C", "setting": "dose: 50.0 mg/kg/injection, schedule: Q07DX002 (ip), vehicle: saline with Tween-80", "result": "85 % of control and 92 % of control"}, {"measurement": "T/C", "setting": "dose: 56.0 mg/kg/injection, schedule: Q07DX002 (ip), vehicle: saline with Tween-80", "result": "109 % of control"}, {"measurement": "T/C", "setting": "dose: 450.0 mg/kg/injection, schedule: Q07DX002 (ip), vehicle: saline with Tween-80", "result": "87 % of control"}, {"measurement": "T/C", "setting": "dose: 900.0 mg/kg/injection, schedule: Q07DX002 (ip), vehicle: saline with Tween-80", "result": "71 % of control"}]}
{"smiles": "Cc1cc2nc3[nH]c4ccccc4c3nc2cc1C", "values": [{"measurement": "T/C", "setting": "dose: 12.5 mg/kg/injection, schedule: Q07DX002 (ip), vehicle: Klucel (hydroxypropylcellulose) (HPC)", "result": "164 % of control"}, {"measurement": "T/C", "setting": "dose: 50.0 mg/kg/injection, schedule: Q07DX002 (ip), vehicle: Klucel (hydroxypropylcellulose) (HPC)", "result": "199 % of control"}, {"measurement": "T/C", "setting": "dose: 100.0 mg/kg/injection, schedule: Q07DX002 (ip), vehicle: Klucel (hydroxypropylcellulose) (HPC)", "result": "172 % of control"}, {"measurement": "T/C", "setting": "dose: 200.0 mg/kg/injection, schedule: Q07DX002 (ip), vehicle: Klucel (hydroxypropylcellulose) (HPC)", "result": "220 % of control"}, {"measurement": "T/C", "setting": "dose: 400.0 mg/kg/injection, schedule: Q07DX002 (ip), vehicle: Klucel (hydroxypropylcellulose) (HPC)", "result": "223 % of control"}]}
{"smiles": "CC/C(=C(/CC)c1ccc(O)cc1)c1ccc(O)cc1", "values": [{"measurement": "T/C", "setting": "dose: 12.5 mg/kg/injection, schedule: Q07DX003 (ip), vehicle: saline with Tween-80", "result": "96 % of control"}, {"measurement": "T/C", "setting": "dose: 25.0 mg/kg/injection, schedule: Q07DX003 (ip), vehicle: saline with Tween-80", "result": "153 % of control"}, {"measurement": "T/C", "setting": "dose: 100.0 mg/kg/injection, schedule: Q07DX003 (ip), vehicle: saline with Tween-80", "result": "76 % of control"}, {"measurement": "T/C", "setting": "dose: 200.0 mg/kg/injection, schedule: Q07DX003 (ip), vehicle: saline with Tween-80", "result": "179 % of control"}]}
{"smiles": "NC(=O)C#CC(N)=O", "values": [{"measurement": "T/C", "setting": "dose: 0.12 mg/kg/injection, schedule: Q07DX002 (ip), vehicle: Klucel (hydroxypropylcellulose) (HPC)", "result": "88 % of control"}, {"measurement": "T/C", "setting": "dose: 0.23 mg/kg/injection, schedule: Q07DX002 (ip), vehicle: Klucel (hydroxypropylcellulose) (HPC)", "result": "97 % of control"}, {"measurement": "T/C", "setting": "dose: 0.45 mg/kg/injection, schedule: Q07DX002 (ip), vehicle: Klucel (hydroxypropylcellulose) (HPC)", "result": "85 % of control"}, {"measurement": "T/C", "setting": "dose: 0.9 mg/kg/injection, schedule: Q07DX002 (ip), vehicle: Klucel (hydroxypropylcellulose) (HPC)", "result": "91 % of control"}]}
{"smiles": "CCOC(OCC)C(=O)OCC(=O)[C@]1(O)Cc2c(O)c3c(c(O)c2[C@@H](OC2CC(N)C(O)C(C)O2)C1)C(=O)c1c(OC)cccc1C3=O", "note": "(some centres not stated)", "values": [{"measurement": "T/C", "setting": "dose: 0.5 mg/kg/injection, schedule: Q07DX002 (ip), vehicle: water", "result": "85 % of control"}, {"measurement": "T/C", "setting": "dose: 2.0 mg/kg/injection, schedule: Q07DX002 (ip), vehicle: water", "result": "107 % of control"}, {"measurement": "T/C", "setting": "dose: 4.0 mg/kg/injection, schedule: Q07DX002 (ip), vehicle: water", "result": "88 % of control"}]}
{"smiles": "CC(C)C(N)C(=O)Nc1nncs1", "note": "(configuration not stated)", "values": [{"measurement": "T/C", "setting": "dose: 100.0 mg/kg/injection, schedule: Q07DX002 (ip), vehicle: saline", "result": "108 % of control and 98 % of control"}, {"measurement": "T/C", "setting": "dose: 200.0 mg/kg/injection, schedule: Q07DX002 (ip), vehicle: saline", "result": "68 % of control and 88 % of control"}, {"measurement": "T/C", "setting": "dose: 400.0 mg/kg/injection, schedule: Q07DX002 (ip), vehicle: saline", "result": "45 % of control and 48 % of control"}]}
{"smiles": "Cc1cc2c(C(C)C)c(O)c(O)c(C=O)c2c(O)c1-c1c(C)cc2c(C(C)C)c(O)c(O)c(C=O)c2c1O", "values": [{"measurement": "T/C", "setting": "dose: 1.5 mg/kg/injection, schedule: Q07DX002 (ip), vehicle: saline with Tween-80", "result": "117 % of control"}, {"measurement": "T/C", "setting": "dose: 3.0 mg/kg/injection, schedule: Q07DX002 (ip), vehicle: saline with Tween-80", "result": "97 % of control"}, {"measurement": "T/C", "setting": "dose: 6.0 mg/kg/injection, schedule: Q07DX002 (ip), vehicle: saline with Tween-80", "result": "107 % of control"}, {"measurement": "T/C", "setting": "dose: 12.0 mg/kg/injection, schedule: Q07DX002 (ip), vehicle: saline with Tween-80", "result": "53 % of control"}, {"measurement": "T/C", "setting": "dose: 24.0 mg/kg/injection, schedule: Q07DX002 (ip), vehicle: saline with Tween-80", "result": "96 % of control"}]}
{"smiles": "COc1ccc(-c2csc(=[N+]3CCCCC3)s2)cc1", "values": [{"measurement": "T/C", "setting": "dose: 3.13 mg/kg/injection, schedule: Q07DX002 (ip), vehicle: water", "result": "107 % of control"}, {"measurement": "T/C", "setting": "dose: 6.25 mg/kg/injection, schedule: Q07DX002 (ip), vehicle: water", "result": "105 % of control"}, {"measurement": "T/C", "setting": "dose: 12.5 mg/kg/injection, schedule: Q07DX002 (ip), vehicle: water", "result": "116 % of control"}, {"measurement": "T/C", "setting": "dose: 25.0 mg/kg/injection, schedule: Q07DX002 (ip), vehicle: water", "result": "123 % of control"}, {"measurement": "T/C", "setting": "dose: 50.0 mg/kg/injection, schedule: Q07DX002 (ip), vehicle: water", "result": "121 % of control"}]}
